Source: patent US8404844B2, “Perylene semiconductors and methods of preparation and use thereof” (BASF SE, priority 2008, dated 2013)
Values after ≈ are worked out from the molar mass of the structure shown.

Assays:
[1] = Solubility in organic solvents; assay type: physicochemical; details: for Solubility CHCl3: chloroform; for Solubility compared to similar compounds: compared to PDI8-CN2, PDI2EH-CN2, PDICitr-CN2 and PDI2MH-CN2; for Solubility DCB: dichlorobenzene (DCB)
Description: As certain embodiments of the compounds disclosed herein can be soluble in common solvents, the present teachings can offer processing advantages in fabricating electrical devices such as thin film semiconductors, field-effect devices, organic light emitting diodes (OLEDs), organic photovoltaics, photodetectors, capacitors, and sensors. As used herein, a compound can be considered soluble in a solvent when at least 1 mg of the compound can be dissolved in 1 mL of the solvent. Examples of common organic solvents include petroleum ethers; acetonitrile; aromatic hydrocarbons such as benzene, toluene, xylene, and mesitylene; ketones such as acetone and methyl ethyl ketone; ethers such as tetrahydrofuran, dioxane, bis(2-methoxyethyl)ether, diethyl ether, di-isopropyl ether, and t-butyl methyl ether; alcohols such as methanol, ethanol, butanol, and isopropyl alcohol; aliphatic hydrocarbons such as hexanes; acetates such as methyl acetate, ethyl acetate, methyl formate, ethyl formate, isopropyl acetate, and butyl acetate; amides such as dimethylformamide and dimethylacetamide; sulfoxides such as dimethylsulfoxide; halogenated aliphatic and aromatic hydrocarbons such as dichloromethane, chloroform, ethylene chloride, chlorobenzene, dichlorobenzene, and trichlorobenzene; and cyclic solvents such as cyclopentanone, cyclohexanone, and 2-methypyrrolidone. Examples of common inorganic solvents include water and ionic liquids.
Greater solubilities (2-10 times) can be achieved using warm solvents.

[2] = Cyclic voltammetry (reduction potential); assay type: physicochemical; details: 0.1 M THF/TBAPF6, under N2, bare Ag reference electrode, scan 60-150 mV/s
Description: Cyclic voltammetry experiments were conducted using an Epsilon single-channel […] and a BAS C3 cell stand (a one-compartment cell with a C disk working electrode, a bare Ag reference electrode, and a Pt wire counter electrode). Appropriate precautions were taken to eliminate water and oxygen during measurement. All measurements were performed under N2 by dissolving the compound (1-3 mg) in a 0.1 M THF/TBAPF6 solutions with scanning rates between 60-150 mV/s. When the voltammograms are (quasi)reversible, it is possible to extract formal potentials (E^1/2) as the midpoints between peak potentials for the forward and reverse scans.
Table 1 summarizes certain physical and electrical properties of some compounds of the present teachings, including Ered values obtained from the cyclic voltammetry experiments. N,N′-Bis(4-n-octyl)-1,7-dicyanoperylene-3,4:9,10-bis(dicarboximide) (PDI8-CN2), N,N′-bis[(3S)-3,7-dimethyl-6-octenyl]-1,7-dicyanoperylene-3,4:9,10-bis(dicarboximide) (PDICitr-CN2), N,N′-bis(2-ethylhexyl)-1,7-dicyanoperylene-3,4:9,10-bis(dicarboximide) (PDI2EH-CN2), and N,N′-bis(2-methylhexyl)-1,7-dicyanoperylene-3,4:9,10-bis(dicarboximide) (PDI2MH-CN2) were included as comparative representative compounds.

CCCCCC(C)N1C(=O)c2ccc3c4c(C#N)cc5c6c(ccc(c7c(C#N)cc(c2c37)C1=O)c64)C(=O)N(C(C)CCCCC)C5=O (stereo not shown) [PDI1MH-CN2, N,N′-bis(1-methylhexyl)-1,7-dicyanoperylene-3,4:9,10-bis(dicarboximide)]
Solubility CHCl3 [1]: 54000 µg/mL (≈ 84.8 mM) | Solubility compared to similar compounds [1]: unexpected increase in solubility | Solubility DCB [1]: 52000 µg/mL (≈ 81.7 mM) | Ered [2]: −0.094 V

CCCC(CC)N1C(=O)c2ccc3c4c(Br)cc5c6c(ccc(c7c(Br)cc(c2c37)C1=O)c64)C(=O)N(C(CC)CCC)C5=O (stereo not shown) [PDI1EB-Br2, N,N′-bis(1-ethylbutyl)-1,7-dibromoperylene-3,4:9,10-bis(dicarboximide)]
Ered [2]: −0.34 V

CC(C)CC(C)N1C(=O)c2ccc3c4c(Br)cc5c6c(ccc(c7c(Br)cc(c2c37)C1=O)c64)C(=O)N(C(C)CC(C)C)C5=O (stereo not shown) [PDI1M3MB-Br2, N,N′-bis(1,3-dimethylbutyl)-1,7-dibromoperylene-3,4:9,10-bis(dicarboximide)]
Ered [2]: −0.39 V

CCC(CC)N1C(=O)c2ccc3c4c(Br)cc5c6c(ccc(c7c(Br)cc(c2c37)C1=O)c64)C(=O)N(C(CC)CC)C5=O [PDI1EPr-Br2, N,N′-bis(1-ethylpropyl)-1,7-dibromoperylene-3,4:9,10-bis(dicarboximide)]
Ered [2]: −0.38 V

CC(C)CC(C)N1C(=O)c2ccc3c4c(C#N)cc5c6c(ccc(c7c(C#N)cc(c2c37)C1=O)c64)C(=O)N(C(C)CC(C)C)C5=O (stereo not shown) [PDI1M3MB-CN2, N,N′-bis(1,3-dimethylbutyl)-1,7-dicyanoperylene-3,4:9,10-bis(dicarboximide)]
Solubility (DCB, 70° C.) [1]: 37100 µg/mL (≈ 60.9 mM) | Solubility CHCl3 [1]: 30000 µg/mL (≈ 49.3 mM) | Solubility compared to similar compounds [1]: unexpected increase in solubility | Solubility DCB [1]: 37000 µg/mL (≈ 60.8 mM) | Ered [2]: −0.088 V

CCC(C)N1C(=O)c2ccc3c4c(C#N)cc5c6c(ccc(c7c(C#N)cc(c2c37)C1=O)c64)C(=O)N(C(C)CC)C5=O (stereo not shown) [PDI1MPr-CN2, N,N′-bis(1-methylpropyl)-1,7-dicyanoperylene-3,4:9,10-bis(dicarboximide)]
Solubility DCB [1]: 8000 µg/mL (≈ 14.5 mM) | Ered [2]: −0.091 V

CCCCC(C)N1C(=O)c2ccc3c4c(C#N)cc5c6c(ccc(c7c(C#N)cc(c2c37)C1=O)c64)C(=O)N(C(C)CCCC)C5=O (stereo not shown) [PDI1MP-CN2, N,N′-bis(1-methylpentyl)-1,7-dicyanoperylene-3,4:9,10-bis(dicarboximide)]
Solubility (DCB, 70° C.) [1]: 41800 µg/mL (≈ 68.7 mM) | Solubility CHCl3 [1]: 43000 µg/mL (≈ 70.6 mM) | Solubility compared to similar compounds [1]: unexpected increase in solubility | Solubility DCB [1]: 40000 µg/mL (≈ 65.7 mM) | Ered [2]: −0.071 V

CCCCCCCCN1C(=O)c2ccc3c4c(C#N)cc5c6c(ccc(c7c(C#N)cc(c2c37)C1=O)c64)C(=O)N(CCCCCCCC)C5=O [PDI8-CN2, N,N′-Bis(4-n-octyl)-1,7-dicyanoperylene-3,4:9,10-bis(dicarboximide), reference compound]
Solubility CHCl3 [1]: 4000 µg/mL (≈ 6.02 mM) | Solubility DCB [1]: 4000 µg/mL (≈ 6.02 mM) | Ered [2]: −0.150 V

CC(C)=CCC[C@H](C)CCN1C(=O)c2ccc3c4c(C#N)cc5c6c(ccc(c7c(C#N)cc(c2c37)C1=O)c64)C(=O)N(CC[C@@H](C)CCC=C(C)C)C5=O [PDICitr-CN2, N,N′-bis[(3S)-3,7-dimethyl-6-octenyl]-1,7-dicyanoperylene-3,4:9,10-bis(dicarboximide), reference compound]
Solubility DCB [1]: 8000 µg/mL (≈ 11.2 mM) | Ered [2]: −0.142 V

CCCCCC(C)N1C(=O)c2ccc3c4c(Br)cc5c6c(ccc(c7c(Br)cc(c2c37)C1=O)c64)C(=O)N(C(C)CCCCC)C5=O (stereo not shown) [PDI1MH-Br2, N,N′-bis(1-methylhexyl)-1,7-dibromoperylene-3,4:9,10-bis(dicarboximide)]
Ered [2]: −0.38 V

CCC(C)N1C(=O)c2ccc3c4c(Br)cc5c6c(ccc(c7c(Br)cc(c2c37)C1=O)c64)C(=O)N(C(C)CC)C5=O (stereo not shown) [PDI1MPr-Br2, N,N′-bis(1-methylpropyl)-1,7-dibromoperylene-3,4:9,10-bis(dicarboximide)]
Ered [2]: −0.40 V

CCCC(C)N1C(=O)c2ccc3c4c(C#N)cc5c6c(ccc(c7c(C#N)cc(c2c37)C1=O)c64)C(=O)N(C(C)CCC)C5=O (stereo not shown) [PDI1MB-CN2, N,N′-bis(1-methylbutyl)-1,7-dicyanoperylene-3,4:9,10-bis(dicarboximide)]
Solubility DCB [1]: 5000 µg/mL (≈ 8.61 mM) | Ered [2]: −0.083 V

CCCC(C)N1C(=O)c2ccc3c4c(Br)cc5c6c(ccc(c7c(Br)cc(c2c37)C1=O)c64)C(=O)N(C(C)CCC)C5=O (stereo not shown) [PDI1MB-Br2, N,N′-bis(1-methylbutyl)-1,7-dibromoperylene-3,4:9,10-bis(dicarboximide)]
Ered [2]: −0.39 V

CCCC(CC)N1C(=O)c2ccc3c4c(C#N)cc5c6c(ccc(c7c(C#N)cc(c2c37)C1=O)c64)C(=O)N(C(CC)CCC)C5=O (stereo not shown) [PDI1EB-CN2, N,N′-bis(1-ethylbutyl)-1,7-dicyanoperylene-3,4:9,10-bis(dicarboximide)]
Solubility CHCl3 [1]: 8000 µg/mL (≈ 13.1 mM) | Solubility DCB [1]: 10000 µg/mL (≈ 16.4 mM) | Ered [2]: −0.106 V

CCCCC(C)CN1C(=O)c2ccc3c4c(C#N)cc5c6c(ccc(c7c(C#N)cc(c2c37)C1=O)c64)C(=O)N(CC(C)CCCC)C5=O (stereo not shown) [PDI2MH-CN2, N,N′-bis(2-methylhexyl)-1,7-dicyanoperylene-3,4:9,10-bis(dicarboximide), reference compound]
Solubility DCB [1]: 5000 µg/mL (≈ 7.85 mM) | Ered [2]: −0.120 V

CCCCC(CC)CN1C(=O)c2ccc3c4c(C#N)cc5c6c(ccc(c7c(C#N)cc(c2c37)C1=O)c64)C(=O)N(CC(CC)CCCC)C5=O (stereo not shown) [PDI2EH-CN2, N,N′-bis(2-ethylhexyl)-1,7-dicyanoperylene-3,4:9,10-bis(dicarboximide), reference compound]
Solubility CHCl3 [1]: 5000 µg/mL (≈ 7.52 mM) | Solubility DCB [1]: 5000 µg/mL (≈ 7.52 mM) | Ered [2]: −0.130 V

CCC(CC)N1C(=O)c2ccc3c4c(C#N)cc5c6c(ccc(c7c(C#N)cc(c2c37)C1=O)c64)C(=O)N(C(CC)CC)C5=O [PDI1EPr-CN2, N,N′-bis(1-ethylpropyl)-1,7-dicyanoperylene-3,4:9,10-bis(dicarboximide)]
Solubility DCB [1]: 10000 µg/mL (≈ 17.2 mM) | Ered [2]: −0.101 V

CCCCC(C)N1C(=O)c2ccc3c4c(Br)cc5c6c(ccc(c7c(Br)cc(c2c37)C1=O)c64)C(=O)N(C(C)CCCC)C5=O (stereo not shown) [PDI1MP-Br2, N,N′-bis(1-methylpentyl)-1,7-dibromoperylene-3,4:9,10-bis(dicarboximide)]
Ered [2]: −0.41 V
